Reference: patent publication US7244712B2, “Aminoglycoside antibiotics and methods of using same” (priority 2004, dated 2007)
Like-named read-outs stand apart in the source and are kept apart here.

Tests used:
[1] = biological target: 70S ribosome; assay: Fluorescence anisotropy binding to 70S ribosomes; details: E. coli ribosomes
Protocol: (§1) After establishing the lack of stereospecificity in the binding of aminoglycosides to the A-site RNA constructs (FIG. 9A-C) where the binding affinity, KD, is about 0.1 μM to about 100 μM, the stereospecificity of aminoglycoside binding to intact ribosomes was determined. Both yeast and E. coli ribosomes were prepared and aminoglycoside binding was measured using fluorescence anisotropy methods. For example, fluorescence anisotropy methods recited in Wang, Y., and Rando, R. R. Chem. Biol. (1995) 2, 281-290; and Wang, Y., Hamasaki, K., and Rando, R. R. Biochemistry (1997) 36,768-779. CRP was used as the binding probe. […] Binding data reported herein for aminoglycoside compounds with eukaryotic yeast ribosomes are similar to binding data for said aminoglycoside compounds with ribosoimes in bacteria and with eukaryotic A-site rRNA constructs.
(§2) 5-Carboxytetramethylrhodamine-labeled paromomycin (CRP) and tobramycin (CRT) concentrations were determined spectroscopically at 550 nm using a molar extinction coefficient of 6.00×10 4 M −1 cm −1. Fluorescence anisotropy measurements were performed on a Perkin-Elmer LS-50B luminescence spectrometer equipped with a thermostat accurate to ±0.1° C. as indicated previously (Wang, Y., Hamasaki, K., & Rando, R. R. (1997) Biochemistry 36, 768-779). The tracer solution was excited at 550 nm and monitored at 580 nm. The integration time was 5 s. For every point, 6 measurements were taken, and their average values were used for calculation. Measurements were carried out in a buffer solution containing 150 mM NaCl, 5 mM KCl, 1 mM CaCl2, 1 mM MgCl2, and 20 mM HEPES (pH 7.5). Prior to measurements, RNA constructs were renatured by incubating in binding buffer {150 mM NaCl, 5 mM KCl, 1 mM CaCl2, 1 mM MgCl2, and 20 mM HEPES (pH 7.5)} for 3 minutes at 90° C. followed by slow cooling to 25° C.
(§3) Equation 1 was used for the determination of the dissociation constant (Kd) for the interactions between RNA or ribosome and CRP. A=A0+DA{(RNA)0+(CRP)0+Kd−({(RNA)0+(CRP)0+Kd}^2−4(RNA)0(CRP)0)½}/2 where A and A0 are the fluorescence anisotropy of CRP in the presence and absence of RNA, respectively, and DA is the difference between the fluorescence anisotropy of CRP in the presence of an extrapolated infinite concentration of RNA minus the fluorescence anisotropy in the absence of RNA. (RNA)0 and (CRP)0 are the initial concentrations of RNA and CRP, respectively.
(§4) Equation 2 is used for the calculation of the KD values in the competition binding assay. (aminoglycoside)0={KD(A−−A)/Kd(A−A0)+1}{(RNA)0−Kd(A−A0)/(A−−A)−(CRP)0(A−A0)/(A−−A)} where KD is the dissociation constant between the RNA and the aminoglycosides; (aminoglycoside)0 is the initial concentration of the aminoglycosides; AL is anisotropy of completely bound tracer. Both Kd and KD were determined by non-linear curve fitting using the equations described above, and are presented as mean values of three independent measurements.
The purification of E. coli (E600) 70S ribosomes was carried out according to the published procedure (Lazaro, E., van den Broek, L. A. G. M., Felix, A. S., Ottenheijm, H. C. J., Ballesta, J. P. G. (1991) Biochemistry 30, 9642-9648). E. coli MRE600 were grown for 12 h in 6L of LB medium (10 g trypton, 5 g yeast extract, 5 g NaCl per 1 L, pH 7.0) at 37° C. Crude ribosomes were precipitated from clarified supernatant by 4 h centrifugation at 25,000 rpm in Beckman SW 28 rotor at 4° C. The ribosome pellets were collected in 5 mL of buffer BR1, containing 10 mM HEPES, pH 7.5, 500 mM ammonium acetate, 100 mM magnesium chloride and 2.5 mM DTT. The ribosome suspension was centrifuged for 20 min at 15000 rpm to be clarified. The clarified sample was loaded over two layers of 20% and 40% sucrose in buffer BR1 and centrifuged for 18 hr at 19000 rpm in Beckman SW28 rotor at 4° C. […]

[2] = biological target: human A-site decoding region construct (H), L-RNA; assay: Fluorescence anisotropy binding, L-RNA human A-site decoding region construct H
From the text: (§5) Experiments were designed to probe the stereospecificity of aminoglycoside binding to the RNA constructs shown in FIG. 9 because these small rRNA constructs mimic ribosomal decoding region RNA function. The three constructs shown include a bacterial 16S A-site rRNA construct (B) (27), its human counterpart (H), and an RNA aptamer (J6f1) selected to bind to the aminoglycoside tobramycin (12,15,16).
(§6) L-aminoglycoside binding to D-RNA sequences are energetically equivalent to binding the enantiotopic D-aminoglycoside to an L-RNA sequence. Initial binding experiments were carried out using enantiomerically pure L-RNA constructs, B, H, and J6f1 (FIG. 9A-C) and D-aminoglycoside compounds. Circular dichroism spectra of the purified constructs confirm the enantiomeric relationship of the corresponding D-RNA and L-RNA constructs (FIGS. 1A-C). The constructs were tested for aminoglycoside binding using the fluorescence anisotropy method described in Example 4. In these measurements, the fluorescent aminoglycoside CRP bearing a rhodamine chromaphore is used to monitor binding to the decoding region constructs (B and H) and fluorescent aminoglycoside CRT bearing a rhodamine chromaphore was used to monitor binding to RNA construct J6f1 (FIG. 9C). See, for example, Wang, Y. and Rando, R. R. Chem. Biol. (1995) 2, 281-290; Hamasaki, K., Killian, J. Cho, J., and Rando, R. R. Biochemistry (1998) 37, 656-663; and Cho, J. and Rando, R. R. (1999) Biochemistry 38, 8548-8554.
(§7) 5-Carboxytetramethylrhodamine-labeled paromomycin (CRP) and tobramycin (CRT) concentrations were determined spectroscopically at 550 nm using a molar extinction coefficient of 6.00×10 4 M −1 cm −1. Fluorescence anisotropy measurements were performed on a Perkin-Elmer LS-50B luminescence spectrometer equipped with a thermostat accurate to ±0.1° C. as indicated previously (Wang, Y., Hamasaki, K., & Rando, R. R. (1997) Biochemistry 36, 768-779). The tracer solution was excited at 550 nm and monitored at 580 nm. The integration time was 5 s. […]
(§8) Equation 1 was used for the determination of the dissociation constant (Kd) for the interactions between RNA or ribosome and CRP. A=A0+DA{(RNA)0+(CRP)0+Kd−({(RNA)0+(CRP)0+Kd}^2−4(RNA)0(CRP)0)½}/2 where A and A0 are the fluorescence anisotropy of CRP in the presence and absence of RNA, respectively, and DA is the difference between the fluorescence anisotropy of CRP in the presence of an extrapolated infinite concentration of RNA minus the fluorescence anisotropy in the absence of RNA. […]
(§9) Equation 2 is used for the calculation of the KD values in the competition binding assay. […] Both Kd and KD were determined by non-linear curve fitting using the equations described above, and are presented as mean values of three independent measurements.

[3] = biological target: human A-site decoding region construct (H), D-RNA; assay: Fluorescence anisotropy binding, D-RNA human A-site decoding region construct H
From the text: as §5, §6, §7, §8, §9

[4] = biological target: 80S ribosome; assay: Fluorescence anisotropy binding to 80S ribosomes; set-up: species or system yeast (S. cerevisiae); details: yeast ribosomes
Protocol: as §1, §2, §3, §4
The purification of yeast 80S ribosomes from S. cerevisiae strain YSB 758 was carried out according to the published procedure (Verschoor, A., Warner, J. R., Srivastava, S., Grassucci, R. A., & Frank, J. (1997) Nucl. Acid Res. 26, 655-661). S. cerevisiea YSB 758 were grown for 12 hrs at 30° C. in 2L of YPD medium, containing: 20 g bacto peptone, 20 g glucose, 10 g yeast extract and 0.15 g tryptophan per 1 L, pH 7.0. The cells were lysed by 5-10 cycles of 1 min vigorous shaking with glass beads with a vortex, followed by cooling on ice. Clarified cell extract (about 9 mL total, used in 6 portions in 1.5 mL aliqouts) was carefully loaded on top of 2 mL of a cushion, composed of 10% sucrose and 5% ammonium sulfate dissolved in buffer YR1 (20 mM HEPES pH=7.4, 16 mM magnesium chloride, 100 mM potassium chloride, 5 mM DTT, and 0.5 mM EDTA). The ribosomes were collected by centrifugation in Beckman TL100.3 rotor at 75000 rpm for 3 h. The supernatants were carefully discarded and ribosomes were collected in buffer YR1. […]

[5] = biological target: bacterial 16S A-site rRNA construct (B), D-RNA; assay: Fluorescence anisotropy binding, D-RNA bacterial A-site decoding region construct B
From the text: as §5, §6, §7, §8, §9

[6] = biological target: bacterial 16S A-site rRNA construct (B), L-RNA; assay: Fluorescence anisotropy binding, L-RNA bacterial A-site decoding region construct B
From the text: as §5, §6, §7, §8, §9

[7] = biological target: RNA aptamer J6f1, D-RNA; assay: Fluorescence anisotropy binding, D-J6f1 tobramycin binding aptamer
From the text: as §5, §6, §7, §8, §9

[8] = biological target: RNA aptamer J6f1, L-RNA; assay: Fluorescence anisotropy binding, L-J6f1 tobramycin binding aptamer
From the text: as §5, §6, §2, §3, §9

[9] = test system: E. coli S30 extract, containing 70S ribosomes; assay: In vitro protein translation (CAT mRNA, 35S methionine incorporation); type: biochemical; details: quantitation of gel bands, read-out: IC50, concentration producing 50% inhibition of translation
Protocol: Protein translation was performed from chloramphenicol acetyl transferase (CAT) mRNA. […] A commercial E. coli ribosomal suspension was supplemented with an E. coli extract containing the required elements for translation. These include translation factors, tRNAs, and aminoacyl tRNA synthases. Plasmid, T7 RNA polymerase and amino acids were added to the reaction mixture, and both transcription and translation steps were performed in the same vial. The effects of the aminoglycosides on the translation process were evaluated by measuring the incorporation of ^35S methionine in the translated chloramphenicol acetyl transferase protein.
In vitro translation was performed by using PROTEINscript™-PRO (Ambion) kit. […] Reaction mixtures contained appropriate concentrations of antibiotic (neomycin B, D- and L-neamine). The protein was translated from CAT mRNA, transcribed from control DNA template containing CAT gene under control of the T7 promotor. The product, ˜25 kDa chloramphenicol acetyl transferase, was labeled during translation with 1 μCi ^35S methionine (New England Nuclear) per reaction (no cold methionine was added).
Following the translation, the samples were analyzed by electrophoresis on 4-20% SDS mini-gels (Invitrogen) for 1.5 h at 120V. Gels were fixed with 40% methanol/10% acetic acid and exposed to Molecular Dynamics phosphoimager plates, which were read on a Personal FX phosphoimager (Bio-Rad) and quantitated using QuantityOne™ software.

[10] = competition with CRP, read-out: Dissociation constant (KD) with 70S ribosome
[11] = competition with CRP, read-out: Dissociation constant (KD) with 80S ribosome
[12] = competition with CRT, read-out: Dissociation constant of aminoglycoside complex with D-J6f1
[13] = competition with CRT, read-out: Dissociation constant of aminoglycoside complex with L-J6f1
[14] = competition with CRP, read-out: Dissociation constant of aminoglycoside complex with L-H
[15] = competition with CRP, read-out: Dissociation constant of aminoglycoside complex with D-H
[16] = competition with CRP, read-out: Dissociation constant of aminoglycoside complex with D-B
[17] = competition with CRP, read-out: Dissociation constant of aminoglycoside complex with L-B

Compound	Kd [1, 10]	Kd [4, 11]	Kd [8, 13]	Kd [2, 14]	Kd [3, 15]	Kd [5, 16]	Kd [6, 17]	further results
5-carboxytetramethyl rhodamine-labeled paromomycin [CRP]	–	–	–	–	–	–	–	Kd ([1]; direct binding of CRP, read-out: Dissociation constant (Kd) of CRP with 70S Ribosome): 3.7 ± 1.1 nM; Kd ([2]; direct binding of fluorescent tracer CRP, read-out: Dissociation constant of CRP complex with L-H): 900 ± 76 nM; Kd ([3]; direct binding of fluorescent tracer CRP, read-out: Dissociation constant of CRP complex with D-H): 1360 ± 180 nM; Kd ([4]; direct binding of CRP, read-out: Dissociation constant (Kd) of CRP with 80S Ribosome): 3.2 ± 0.9 nM; Kd ([5]; direct binding of fluorescent tracer CRP, read-out: Dissociation constant of CRP complex with D-B): 170 ± 17.5 nM; Kd ([6]; direct binding of fluorescent tracer CRP, read-out: Dissociation constant of CRP complex with L-B): 224 ± 22.6 nM
NCC1OC(OC2C(O)C(N)CC(N)C2O)C(N)C(O)C1O [5-Isomer of D-Neamine (2), 5-isomer of D-Neamine]	910 ± 130 nM	2220 ± 110 nM	–	–	–	–	–	–
NCC1OC(OC2C(N)CC(N)C(O)C2O)C(N)C(O)C1O [6-Isomer of D-Neamine (3), 6-isomer of D-Neamine]	30700 ± 1700 nM	22500 ± 1250 nM	–	–	–	–	–	–
[H]/N=C(/N)N[C@H]1[C@H](O)[C@@H](O)[C@H](O[C@@H]2O[C@@H](C)[C@](O)(C=O)[C@H]2O[C@@H]2O[C@@H](CO)[C@H](O)[C@@H](O)[C@@H]2NC)[C@@H](N/C(N)=N\[H])[C@@H]1O [Streptomycin]	–	30500 nM	–	–	–	–	–	Dissociation constant (KD) with 70S ribosome ([1]; competition with CRP): did not exhibit measurable binding
NCC1OC(OC2C(O)C(N)CC(N)C2O)C(N)C(O)C1O (single isomer, unassigned) [5-Isomer of L-Neamine (ent-2), 5-isomer of L-Neamine]	1550 ± 110 nM	1530 ± 120 nM	–	–	–	–	–	–
NCC1OC(OC2C(N)CC(N)C(O)C2O)C(N)C(O)C1O (single isomer, unassigned) [4-Isomer of L-Neamine (ent-3), 4-isomer of L-Neamine]	6400 ± 870 nM	33000 ± 5840 nM	–	–	–	–	–	–
NC[C@H]1O[C@H](O[C@H]2[C@H](O)[C@@H](O[C@H]3O[C@H](CO)[C@@H](O)[C@H](N)[C@H]3O)[C@H](N)C[C@@H]2N)[C@H](N)C[C@@H]1O [Tobramycin]	1760 ± 380 nM	3690 ± 310 nM	2180 ± 230 nM	3220 ± 260 nM	1570 ± 210 nM	1400 ± 240 nM	4390 ± 370 nM	Kd [7, 12]: 5.2 ± 0.42 nM; Kd ([7]; read-out: KD of tobramycin with RNA aptamer J6f1): 5 nM; Kd ([8]; competition with CRT, listed as tobramycin, read-out: Dissociation constant of aminoglycoside complex with L-J6f1): 2200 nM
Neomycin	140 ± 38 nM	110 ± 14 nM	360 ± 21 nM	1410 ± 14 nM	260 ± 3.6 nM	52 ± 1.86 nM	109 ± 4.6 nM	Kd [7, 12]: 5590 ± 1390 nM; Kd ([1]; competition with CRP, listed as neomycin B, read-out: Dissociation constant (KD) with 70S ribosome): ~100 nM; IC50 [9]: 15000 nM
5-carboxytetramethyl rhodamine-labeled tobramycin [CRT]	–	–	–	–	–	–	–	Kd ([7]; direct binding of fluorescent tracer CRT, read-out: Dissociation constant of CRT complex with D-J6f1): 190 ± 11 nM; Kd ([8]; direct binding of fluorescent tracer CRT, read-out: Dissociation constant of CRT complex with L-J6f1): 200 ± 28 nM
NC[C@@H]1O[C@H](O[C@H]2[C@@H](O)[C@H](O[C@@H]3[C@@H](O)[C@H](N)C[C@H](N)[C@H]3O[C@H]3O[C@H](CO)[C@@H](O)[C@H](O)[C@H]3N)O[C@@H]2CO)[C@H](N)[C@@H](O)[C@@H]1O [Paromomycin]	1410 ± 150 nM	1970 ± 100 nM	4600 ± 370 nM	2760 ± 260 nM	2200 ± 170 nM	1650 ± 350 nM	6380 ± 270 nM	–
